According to ChEMBL document CHEMBL3879914, “Inhibitors of central nervous system vasoactive inhibitory peptide receptor 2” (2014):
Activity calls are given as the source filed them. No cut-off for these calls is given here.

What was measured:
[1] = molecular target: T1, Vasoactive intestinal polypeptide receptor 2 (Homo sapiens) (UniProt P41587); assay: (§1) Antagonist activity at recombinant human N-terminal signal peptide/FLAG epitope-tagged Rluc8-fused VIPR2 expressed in HEK293 cells assessed as inhibition of VIP-induced human mVenus-beta-arrestin2 binding at 0.5 uM preincubated for 5 mins with luciferin, coelenterazine H followed by VIP addition measured after 5 mins by BRET assay relative to control; type: cell-based
T1 sequence (whole entry): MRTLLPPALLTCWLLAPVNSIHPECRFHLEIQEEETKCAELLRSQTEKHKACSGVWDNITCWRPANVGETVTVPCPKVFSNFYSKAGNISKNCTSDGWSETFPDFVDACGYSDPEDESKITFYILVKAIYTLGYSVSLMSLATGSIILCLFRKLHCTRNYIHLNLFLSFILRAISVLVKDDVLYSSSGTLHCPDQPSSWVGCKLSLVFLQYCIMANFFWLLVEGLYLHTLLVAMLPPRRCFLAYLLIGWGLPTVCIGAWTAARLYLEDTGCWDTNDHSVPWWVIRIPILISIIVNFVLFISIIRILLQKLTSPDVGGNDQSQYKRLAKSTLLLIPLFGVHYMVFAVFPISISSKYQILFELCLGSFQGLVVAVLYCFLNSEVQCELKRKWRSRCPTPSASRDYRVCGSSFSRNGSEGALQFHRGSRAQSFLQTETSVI

[2] = molecular target: T2, Vasoactive intestinal polypeptide receptor 2 (Homo sapiens, UniProt P41587); assay: as §1, with “binding” for “binding at 0.5 uM”, “assay” for “assay relative to control”; type: cell-based
T2 sequence (P41587 whole entry): T1 sequence (whole entry)

[3] = molecular target: T1, Vasoactive intestinal polypeptide receptor 2 (Homo sapiens); assay: as §1, with “epitope-tagged” for “epitope-tagged Rluc8-fused”, “cells co-expressing CAMYEL” for “cells”, “cAMP accumulation” for “human mVenus-beta-arrestin2 binding”, “5” for “0.5”; type: functional, cell-based
[4] = molecular target: T1, Vasoactive intestinal polypeptide receptor 2 (Homo sapiens); assay: (§2) Antagonist activity at recombinant human N-terminal signal peptide/FLAG epitope-tagged VIPR2 expressed in CHO cells co-expressing CAMYEL assessed as inhibition of VIP-induced cAMP accumulation preincubated for 5 mins with luciferin, coelenterazine H followed by VIP addition measured after 5 mins by BRET assay; type: functional, cell-based
[5] = molecular target: T1, Vasoactive intestinal polypeptide receptor 2 (Homo sapiens); assay: as §1, with “1” for “0.5”; type: cell-based
[6] = molecular target: T1, Vasoactive intestinal polypeptide receptor 2 (Homo sapiens); assay: as §1, with “epitope-tagged” for “epitope-tagged Rluc8-fused”, “cells co-expressing CAMYEL” for “cells”, “cAMP accumulation” for “human mVenus-beta-arrestin2 binding”; type: functional, cell-based
[7] = molecular target: T1, Vasoactive intestinal polypeptide receptor 2 (Homo sapiens); assay: as §1, with “5” for “0.5”; type: cell-based
[8] = molecular target: T1, Vasoactive intestinal polypeptide receptor 2 (Homo sapiens); assay: as §2, with “HEK293” for “CHO”, “accumulation at 1 uM” for “accumulation”, “assay relative to control” for “assay”; type: functional, cell-based
[9] = molecular target: T2, Vasoactive intestinal polypeptide receptor 2; assay: Antagonist activity at human VIPR2 expressed in HEK293 cells assessed as inhibition of VIP-induced beta-arrestin 2 binding incubated for 2 hrs by beta-galactosidase assay; type: cell-based
[10] = molecular target: T2, Vasoactive intestinal polypeptide receptor 2; assay: Antagonist activity at human VIPR2 expressed in HEK293 cells assessed as inhibition of VIP-induced cAMP accumulation incubated for 30 mins by HTRF assay; type: functional, cell-based

| SMILES | inhibition [1] [%] | IC50 [2] [µM] | inhibition [3] [%] | inhibition [4] | inhibition [5] [%] | inhibition [6] [%] | inhibition [7] [%] | inhibition [8] [%] | IC50 [9] [µM] | IC50 [10] [µM] |
| --- | --- | --- | --- | --- | --- | --- | --- | --- | --- | --- |
| CO[C@@H]1Cc2ccccc2[C@@H]1NC(=O)[C@H](Cc1ccccc1)C[C@H](O)CNS(=O)(=O)c1ccc(C(C)=O)cc1 | 76.2 | 5 | – | – | – | – | – | – | – | – |
| CC(=O)c1ccc(S(=O)(=O)NC[C@@H](O)C[C@@H](Cc2ccccc2)C(=O)N[C@H]2c3ccccc3C[C@H]2O)cc1 | 58.3 to 92.3 | – | 96 | Active | 78 | 38.6 | 88.7 | 61.1 | – | – |
| O=C(N[C@H]1c2ccccc2C[C@H]1O)[C@H](Cc1ccccc1)C[C@H](O)CNS(=O)(=O)c1ccc([N+](=O)[O-])cc1 | 2.6 to 84.5 | – | 97.8 to 100 | – | -2.6 to 74.6 | 38.7 to 74.3 | 29.3 to 92 | 70.9 to 86.1 | 2.3 | 3.8 |
| O=C(N[C@H]1c2ccccc2C[C@H]1O)[C@H](Cc1ccccc1)C[C@H](O)CNS(=O)(=O)c1ccc(Cl)cc1 | – | 0.28 to 2.02 | – | – | – | – | – | – | – | – |
| CO[C@@H]1Cc2ccccc2[C@@H]1NC(=O)[C@H](Cc1ccccc1)C[C@H](O)CNS(=O)(=O)c1ccc(Cl)cc1 | 13.3 | 4 | – | – | – | – | – | – | – | – |
| Cc1ccc(S(=O)(=O)NC[C@@H](O)C[C@@H](Cc2ccccc2)C(=O)N[C@H]2c3ccccc3C[C@H]2O)cc1 | 62.3 to 94.1 | 1.18 to 1.98 | 98.2 | – | 80.4 | 42.2 | 90 | 63.5 | – | – |
| O=C(NC1CCCc2ccccc21)[C@H](Cc1ccccc1)C[C@H](O)CNS(=O)(=O)c1ccc([N+](=O)[O-])cc1 (some centres undefined) | 3.3 to 13.8 | – | 17.5 | – | 7.4 | 8.8 | 10.2 | 12.4 | – | – |

Next, values leading:

| inhibition [1] [%] | IC50 [2] [µM] | inhibition [3] [%] | inhibition [4] | inhibition [5] [%] | inhibition [6] [%] | inhibition [7] [%] | inhibition [8] [%] | IC50 [9] [µM] | IC50 [10] [µM] | SMILES |
| --- | --- | --- | --- | --- | --- | --- | --- | --- | --- | --- |
| 13.4 to 26.8 | 1800 | 6.2 | – | 20.4 | -1.5 | 20.7 | 0.6 | – | – | CCCCNC(=O)[C@@H](Cc1ccccc1)C[C@H](O)CNS(=O)(=O)c1ccc([N+](=O)[O-])cc1 |
| 28.1 | 6 | – | – | – | – | – | – | – | – | CO[C@H]1Cc2ccccc2[C@@H]1NC(=O)[C@H](Cc1ccccc1)C[C@H](O)CNS(=O)(=O)c1ccc2c(c1)OCCO2 |
| – | 1.13 to 45.8 | – | – | – | – | – | – | – | – | CCc1ccc(S(=O)(=O)NC[C@@H](O)C[C@@H](Cc2ccccc2)C(=O)N[C@H]2c3ccccc3C[C@H]2O)cc1 |
| – | 0.206 to 33.7 | – | – | – | – | – | – | – | – | O=C(N[C@H]1c2ccccc2C[C@H]1O)[C@H](Cc1ccccc1)C[C@H](O)CNS(=O)(=O)c1ccc2c(c1)OCCO2 |
| 3.9 to 15.9 | – | 31.8 | – | 0.5 | 15.2 | 0.1 | 19.6 | – | – | O=C(NC1CCCC1)c1ccc(S(=O)(=O)NC[C@@H](O)C[C@@H](Cc2ccccc2)C(=O)N[C@H]2c3ccccc3C[C@H]2O)cc1 |
| -4 to 10.6 | – | 14.3 | – | 3.6 | 15.5 | 6.8 | 10.6 | – | – | O=C(NC1CCCCCC1)[C@@H](Cc1ccccc1)C[C@H](O)CNS(=O)(=O)c1ccc([N+](=O)[O-])cc1 |
| 2.8 to 27.6 | – | 23.3 | – | 20.3 | 14.1 | 31.8 | 10.9 | – | – | Cc1ccc(S(=O)(=O)NC[C@@H](O)C[C@@H](Cc2ccccc2)C(=O)N[C@H]2c3ccccc3C[C@H]2O)c(C)c1 |
| 6.4 to 13.1 | – | 26 | – | -1.8 | 7.4 | 0.2 | 6.4 | – | – | O=C(O)c1ccc(S(=O)(=O)NC[C@@H](O)C[C@@H](Cc2ccccc2)C(=O)N[C@H]2c3ccccc3C[C@H]2O)cc1 |
| 4.1 to 10.1 | – | 25.5 | – | 1.8 | -1.4 | -5.4 | 0.1 | – | – | O=C(N[C@H]1c2ccccc2C[C@H]1O)[C@H](Cc1ccccc1)C[C@H](O)CNS(=O)(=O)c1ccc(C(=O)N2CCOCC2)cc1 |
